Experimental data published in PubChem BioAssay AID248 (DTP/NCI, 2004).
Values joined by “and” are separate entries in the source; they are usually repeats but may differ in a detail not shown here. Equal values may be shown once. Toxic doses and inconclusive results are not listed.

System: L1210 leukemia ip in BDF1 mice, survival T/C
Assay: NCI In Vivo Anticancer Drug Screen. Data for tumor model L1210 Leukemia (intraperitoneal) in B6D2F1 (BDF1) mice
Settings: endpoint: mean survival time, higher = longer survival
Procedure, shortened: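 Read-out is survival time, reported as the treated-group measurement over the vehicle-control measurement.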

[1] = dose: 100.0 mg/kg/injection, schedule: Q04DX003 (ip), vehicle: saline
[2] = dose: 200.0 mg/kg/injection, schedule: Q04DX003 (ip), vehicle: saline
[3] = dose: 400.0 mg/kg/injection, schedule: Q04DX003 (ip), vehicle: saline
[4] = dose: 100.0 mg/kg/injection, schedule: Q04DX003 (ip), vehicle: saline with Tween-80
[5] = dose: 200.0 mg/kg/injection, schedule: Q04DX003 (ip), vehicle: saline with Tween-80
[6] = dose: 400.0 mg/kg/injection, schedule: Q04DX003 (ip), vehicle: saline with Tween-80
[7] = dose: 100.0 mg/kg/injection, schedule: Q01DX001 (ip), vehicle: saline
[8] = dose: 100.0 mg/kg/injection, schedule: Q01DX009 (ip), vehicle: saline
[9] = dose: 200.0 mg/kg/injection, schedule: Q01DX009 (ip), vehicle: saline
[10] = dose: 100.0 mg/kg/injection, schedule: Q01DX009 (ip), vehicle: saline with Tween-80
[11] = dose: 200.0 mg/kg/injection, schedule: Q01DX009 (ip), vehicle: saline with Tween-80
[12] = dose: 50.0 mg/kg/injection, schedule: Q01DX009 (ip), vehicle: saline with Tween-80

With Oc1ccc2ccccc2c1CN1CCCCC1 the T/C (dose: 75.0 mg/kg/injection, schedule: Q01DX009 (ip), vehicle: saline) was 92 % of control, the T/C [1] was 90 % of control and the T/C (dose: 150.0 mg/kg/injection, schedule: Q01DX009 (ip), vehicle: saline) was 95 % of control. For the same compound, the T/C [2] was 101 % of control, the T/C (dose: 300.0 mg/kg/injection, schedule: Q01DX009 (ip), vehicle: saline) was 89 % of control and the T/C [3] was 106 % of control.
For O=C(NCCc1ccccc1)c1ccccc1, the T/C [4] was 112 % of control, the T/C [5] was 102 % of control and the T/C [6] was 100 % of control.
OCC(O)COc1ccnc2ccccc12 (stereo not drawn) was tested, and the T/C (dose: 100.0 mg/kg/injection, schedule: Q01DX009 (ip), vehicle: acetone) was 105 % of control, the T/C (dose: 200.0 mg/kg/injection, schedule: Q01DX009 (ip), vehicle: acetone) was 97 % of control and the T/C (dose: 400.0 mg/kg/injection, schedule: Q01DX009 (ip), vehicle: acetone) was 97 % of control.
O=C(/C=C/c1ccccc1)c1ccccn1 was tested, and the T/C [4] was 100 % of control, the T/C [5] was 104 % of control and the T/C [6] was 100 % of control.
For CC[n+]1ccc(Nc2ccc(NC(=O)c3ccc(C(=O)Nc4ccc(Nc5cc[n+](CC)c(N)n5)cc4)cc3)cc2)nc1N, the T/C [7] was 190 % of control, the T/C (dose: 133.0 mg/kg/injection, schedule: Q01DX009 (ip), vehicle: saline) was 88 % of control and the T/C (dose: 150.0 mg/kg/injection, schedule: Q01DX001 (ip), vehicle: saline) was 228 % of control. The T/C (dose: 225.0 mg/kg/injection, schedule: Q01DX001 (ip), vehicle: saline) was 203 % of control.
Cc1c(C(=O)O)cc2n(c1=O)Cc1cc3ccccc3nc1-2 was tested, and the T/C [8] was 90 % of control, the T/C [1] was 95 % of control and the T/C [9] was 86 % of control. The T/C [2] was 106 % of control and the T/C [3] was 98 % of control.
In the case of Cc1c2cnccc2c(C)c2c1c1ccccc1n2CCN(C)C, the T/C (dose: 12.5 mg/kg/injection, schedule: Q04DX003 (ip), vehicle: saline) was 105 % of control, the T/C (dose: 25.0 mg/kg/injection, schedule: Q04DX003 (ip), vehicle: saline) was 97 % of control and the T/C (dose: 50.0 mg/kg/injection, schedule: Q04DX003 (ip), vehicle: saline) was 102 % of control. The T/C (dose: 300.0 mg/kg/injection, schedule: Q04DX003 (ip), vehicle: saline) was 113 % of control.
For O=C(NCCCNC(=O)Nc1cccc(C2=NCCCN2)c1)Nc1cccc(C2=NCCCN2)c1, the T/C (dose: 0.5 mg/kg/injection, schedule: Q01DX Z (ip), vehicle: carboxymethylcellulose (CMC)) was 104 % of control, the T/C (dose: 1.0 mg/kg/injection, schedule: Q01DX Z (ip), vehicle: carboxymethylcellulose (CMC)) was 106 % of control and the T/C (dose: 2.0 mg/kg/injection, schedule: Q01DX Z (ip), vehicle: carboxymethylcellulose (CMC)) was 96 % of control.
With O=c1[nH]c(NC2OC(CO)C(O)C2O)nc2c1ncn2C1(CO)CC(O)(CO)O1 (stereo not drawn) the T/C (dose: 100.0 mg/kg/injection, schedule: Q01DX005 (ip), vehicle: saline) was 93 % of control and the T/C (dose: 200.0 mg/kg/injection, schedule: Q01DX005 (ip), vehicle: saline) was 98 % of control.
CCCNC(=O)c1cc(NC(=O)Nc2ccc(C3=NCCCN3)cc2)cc(NC(=O)Nc2ccc(C3=NCCCN3)cc2)c1 was tested, and the T/C (dose: 21.0 mg/kg/injection, schedule: Q01DX Z (ip), vehicle: carboxymethylcellulose (CMC)) was 115 % of control, the T/C (dose: 42.0 mg/kg/injection, schedule: Q01DX Z (ip), vehicle: carboxymethylcellulose (CMC)) was 113 % of control and the T/C (dose: 84.0 mg/kg/injection, schedule: Q01DX Z (ip), vehicle: carboxymethylcellulose (CMC)) was 117 % of control.
COC1OCC(O)C(N)C1O (stereo not drawn) was tested, and the T/C [7] was 102 % of control and 95 % of control, the T/C (dose: 200.0 mg/kg/injection, schedule: Q01DX001 (ip), vehicle: saline) was 102 % of control and 104 % of control and 106 % of control and the T/C (dose: 400.0 mg/kg/injection, schedule: Q01DX001 (ip), vehicle: saline) was 87 % of control and 98 % of control and 92 % of control.
For O=C(O)/C(=C\c1ccccc1)c1ccc([N+](=O)[O-])cc1, the T/C [4] was 103 % of control, the T/C [5] was 92 % of control and the T/C [6] was 92 % of control.
In the case of CCOP(=O)(OCC)C(=O)N(CC)CC, the T/C (dose: 100.0 mg/kg/injection, schedule: Q01DX009 (ip), vehicle: Klucel (hydroxypropylcellulose) (HPC)) was 101 % of control, the T/C (dose: 200.0 mg/kg/injection, schedule: Q01DX009 (ip), vehicle: Klucel (hydroxypropylcellulose) (HPC)) was 90 % of control and the T/C (dose: 400.0 mg/kg/injection, schedule: Q01DX009 (ip), vehicle: Klucel (hydroxypropylcellulose) (HPC)) was 91 % of control.
In the case of CCOC(=O)c1c[nH]c2ccc([N+](=O)[O-])cc2c1=O, the T/C (dose: 25.0 mg/kg/injection, schedule: Q01DX001 (ip), vehicle: Klucel (hydroxypropylcellulose) (HPC)) was 97 % of control, the T/C (dose: 50.0 mg/kg/injection, schedule: Q01DX001 (ip), vehicle: Klucel (hydroxypropylcellulose) (HPC)) was 97 % of control and the T/C (dose: 100.0 mg/kg/injection, schedule: Q01DX001 (ip), vehicle: Klucel (hydroxypropylcellulose) (HPC)) was 97 % of control.
For O=C1NC(=O)C(=Cc2ccccc2)C(=O)N1, the T/C (dose: 100.0 mg/kg/injection, schedule: Q04DX002 (ip), vehicle: saline with Tween-80) was 98 % of control, the T/C (dose: 200.0 mg/kg/injection, schedule: Q01DX Z (ip), vehicle: methylcellulose (MC)) was 94 % of control and the T/C (dose: 200.0 mg/kg/injection, schedule: Q04DX002 (ip), vehicle: saline with Tween-80) was 106 % of control.
O=C(CCl)c1ccc(O)c(O)c1 was tested, and the T/C (dose: 6.25 mg/kg/injection, schedule: Q01DX009 (ip), vehicle: saline) was 94 % of control, the T/C (dose: 12.5 mg/kg/injection, schedule: Q01DX009 (ip), vehicle: saline) was 105 % of control and the T/C (dose: 33.0 mg/kg/injection, schedule: Q01DX001 (ip), vehicle: other) was 105 % of control. The T/C (dose: 50.0 mg/kg/injection, schedule: Q01DX001 (ip), vehicle: other) was 108 % of control, the T/C (dose: 75.0 mg/kg/injection, schedule: Q01DX001 (ip), vehicle: other) was 109 % of control and the T/C (dose: 112.0 mg/kg/injection, schedule: Q01DX001 (ip), vehicle: other) was 108 % of control.
With O=C1CCCCCCCCC1O (stereo not drawn) the T/C [10] was 120 % of control, the T/C [8] was 333 % of control and the T/C (dose: 100.0 mg/kg/injection, schedule: Q04DX003 (ip), vehicle: Klucel (hydroxypropylcellulose) (HPC)) was 103 % of control. The T/C [11] was 101 % of control, the T/C [9] was 114 % of control and the T/C (dose: 200.0 mg/kg/injection, schedule: Q04DX003 (ip), vehicle: Klucel (hydroxypropylcellulose) (HPC)) was 115 % of control. The T/C (dose: 400.0 mg/kg/injection, schedule: Q01DX009 (ip), vehicle: saline with Tween-80) was 97 % of control, the T/C (dose: 400.0 mg/kg/injection, schedule: Q01DX009 (ip), vehicle: saline) was 105 % of control and the T/C (dose: 400.0 mg/kg/injection, schedule: Q04DX003 (ip), vehicle: Klucel (hydroxypropylcellulose) (HPC)) was 108 % of control.
For CCC1CN2CCc3cc(OC)c(OC)cc3C2CC1=O (stereo not drawn), the T/C [12] was 102 % of control, the T/C [10] was 103 % of control and 108 % of control and the T/C [11] was 124 % of control.
In the case of CN1CCCN(C)CC1, the T/C (dose: 25.0 mg/kg/injection, schedule: Q01DX009 (ip), vehicle: saline with Tween-80) was 104 % of control, the T/C [12] was 97 % of control and the T/C [10] was 103 % of control. For the same compound, the T/C [4] was 95 % of control, the T/C [11] was 91 % of control and the T/C [5] was 100 % of control. For the same compound, the T/C [6] was 102 % of control.
For Clc1cc(CBr)c(Cl)c(Cl)c1CBr, the T/C (dose: 6.25 mg/kg/injection, schedule: Q01DX009 (ip), vehicle: saline sonified) was 94 % of control, the T/C (dose: 6.25 mg/kg/injection, schedule: Q04DX003 (ip), vehicle: Klucel (hydroxypropylcellulose) (HPC)) was 97 % of control and the T/C (dose: 12.5 mg/kg/injection, schedule: Q01DX009 (ip), vehicle: saline sonified) was 94 % of control. The T/C (dose: 12.5 mg/kg/injection, schedule: Q04DX003 (ip), vehicle: Klucel (hydroxypropylcellulose) (HPC)) was 91 % of control, the T/C (dose: 25.0 mg/kg/injection, schedule: Q01DX009 (ip), vehicle: saline sonified) was 91 % of control and the T/C (dose: 25.0 mg/kg/injection, schedule: Q04DX003 (ip), vehicle: Klucel (hydroxypropylcellulose) (HPC)) was 98 % of control.
For Cc1ccc(NC(=O)Nc2cccc3ccccc23)cc1, the T/C (dose: 12.0 mg/kg/injection, schedule: Q01DX009 (ip), vehicle: gum acacia) was 108 % of control, the T/C (dose: 12.5 mg/kg/injection, schedule: Q04DX003 (ip), vehicle: gum acacia) was 91 % of control and the T/C (dose: 25.0 mg/kg/injection, schedule: Q01DX009 (ip), vehicle: gum acacia) was 103 % of control. For the same compound, the T/C (dose: 25.0 mg/kg/injection, schedule: Q04DX003 (ip), vehicle: gum acacia) was 93 % of control, the T/C (dose: 50.0 mg/kg/injection, schedule: Q01DX009 (ip), vehicle: gum acacia) was 94 % of control and the T/C (dose: 50.0 mg/kg/injection, schedule: Q04DX003 (ip), vehicle: gum acacia) was 98 % of control.
